For data set [1] the following is noted: Wen et al., Molecules 2010; cited from earlier work.
Data set [2] can be described thus: Solubility test in water (supersaturated solutions). Format: physicochemical. To be noted: 22 mg added to 0.5 ml of water. On the procedure:
Supersaturated solutions of naringenin and NRG:ARG 1:3 NSF were prepared from 0.5 ml of water.

The structures appear in SMILES notation.

Turning to `O=C1C[C@@H](c2ccc(O)cc2)Oc2cc(O)cc(O)c21` [naringenin, Naringenin], the reported solubility in data set [1] was 4.38 µg/mL. Further, the dissolution in water result in data set [2] is listed as “practically it did not dissolve at all”.

The values are drawn from patent US20240285534A1, “CO-AMORPHOUS SOLID FORMS OF FLAVONOIDS” (ALPARIS, S.A. de C.V., priority 2022, published 2024).
